Measurements reported in patent publication US5639777A, “1,4,5-triphenyl pyrazolyl compounds for the treatment of inflammation and inflammation-related disorders” (G.D. Searle & Co., priority 1996, dated 1997).

Columns and labels:
[1] = tested on: carrageenan-induced foot edema in rats; assay: Rat Carrageenan Foot Pad Edema Test; type: in vivo, Male Sprague-Dawley rats; details: @ 10 mg/kg body weight; oral; foot volume three hours after carrageenan injection
Procedure: The carrageenan foot edema test was performed with materials, reagents and procedures essentially as described by Winter, et al., (Proc. soc. Exm. Biol. Med., 111, 544 (1962)). Male Sprague-Dawley rats were selected in each group so that the average body weight was as close as possible. Rats were fasted with free access to water for over sixteen hours prior to the test. The rats were dosed orally (1 mL)with compounds suspended in vehicle containing 0.5% methylcellulose and 0.025% surfactant, or with vehicle alone. One hour later a subplantar injection of 0.1 mL of 1% solution of carrageenan/sterile 0.9% saline was administered and the volume of the injected foot was measured with a displacement plethysmometer connected to a pressure transducer with a digital indicator. Three hours after the injection of the carrageenan, the volume of the foot was again measured. The average foot swelling in a group of drug-treated animals was compared with that of a group of placebo-treated animals and the percentage inhibition of edema was determined (Otterness and Bliven, Laboratory Models for Testing NSAIDs, in Non-steroidal Anti-Inflammatory Drugs, (J. Lombardino, ed. 1985)).

[2] = compared with other common anti-inflammatory agents; cited from earlier work

SMILES	% Inhibition (rat paw edema) [1] [%]	ulcerogenic [2]
CS(=O)(=O)c1ccc(-c2c(-c3ccc(F)cc3)c(C(F)(F)F)nn2-c2ccccc2)cc1 [Example 1, 4-(4-Fluorophenyl)-5-[4-(methylsulfonyl)phenyl]-1-phenyl-3-(trifluoromethyl)pyrazole]	20	
O=C(O)Cc1c(-c2ccccc2)c(-c2ccccc2)nn1-c1ccccc1 [Isofezolac, 1,3,4-triphenyl-1H-pyrazole-5-acetic acid]		as ulcerogenic as other common anti-inflammatory agents
